The test system of one test is Aspergillus flavus. In words: Antifungal activity against Aspergillus flavus by twofold serial dilution method. It counts as functional.
A further test has as its system Salmonella enterica. In words: Antibacterial activity against Salmonella typhi by twofold serial dilution method. The format is functional, Salmonella enterica subsp. enterica serovar Typhi.
Another test relates to Aspergillus niger. Put plainly: Antifungal activity against Aspergillus niger by twofold serial dilution method. The format is functional.
The test system of another test is Candida albicans. In words: Antifungal activity against Candida albicans by twofold serial dilution method. It counts as functional.
In a further test the test system is Pseudomonas aeruginosa. In words: Antibacterial activity against Pseudomonas aeruginosa by twofold serial dilution method. It counts as functional.
The next test deals with Rhizopus. In words: Antifungal activity against Rhizopus sp. by twofold serial dilution method. The format is functional.
For another test, the system named is Staphylococcus aureus. In words: Antibacterial activity against Staphylococcus aureus by twofold serial dilution method. It counts as functional.
Another test concerns Escherichia coli. In words: Antibacterial activity against Escherichia coli by twofold serial dilution method. It counts as functional.
Another test deals with Klebsiella pneumoniae. Put plainly: Antibacterial activity against Klebsiella pneumoniae by twofold serial dilution method. It counts as functional.
The subject of another test is Candida. In words: Antifungal activity against Candida 51 by twofold serial dilution method. It counts as functional.

Molecules are shown by their SMILES. Values after ≈ are worked out from the molar mass of the structure shown.

Turning to `Clc1ccccc1C1NC(c2ccccc2Cl)C2CCCC1C2=NOCc1ccccc1` (configuration not stated), the MIC came to 12.5 µg/mL (≈ 26.9 µM) in the test on Aspergillus flavus; 50 µg/mL (≈ 107 µM) in the test with Salmonella enterica; 50 µg/mL (≈ 107 µM) against Aspergillus niger; 12.5 µg/mL (≈ 26.9 µM) in the test with Candida albicans; 6.25 µg/mL (≈ 13.4 µM) against Pseudomonas aeruginosa; 50 µg/mL (≈ 107 µM) with Rhizopus. The MIC with Staphylococcus aureus came out at 12.5 µg/mL (≈ 26.9 µM); against Escherichia coli, 12.5 µg/mL (≈ 26.9 µM); with Klebsiella pneumoniae, 50 µg/mL (≈ 107 µM); in the test on Candida it was 6.25 µg/mL (≈ 13.4 µM).

In the case of `c1ccc(CON=C2C3CCCC2C(c2ccccc2)NC3c2ccccc2)cc1` (configuration not stated), the MIC with Aspergillus flavus is 200 µg/mL (≈ 504 µM); against Salmonella enterica it was 200 µg/mL (≈ 504 µM); in the test on Aspergillus niger, over 200 µg/mL; in the test on Candida albicans, 100 µg/mL (≈ 252 µM); in the test with Pseudomonas aeruginosa it was 200 µg/mL (≈ 504 µM); with Rhizopus, over 200 µg/mL. Further, the MIC against Staphylococcus aureus is over 200 µg/mL; in the test on Escherichia coli, 100 µg/mL (≈ 252 µM); in the test on Klebsiella pneumoniae, over 200 µg/mL; against Candida, 200 µg/mL (≈ 504 µM).

For the molecule `Fc1cccc(C2NC(c3cccc(F)c3)C3CCCC2C3=NOCc2ccccc2)c1` (configuration not stated), the MIC in the test with Aspergillus flavus was 100 µg/mL (≈ 231 µM); in the test with Salmonella enterica it was 100 µg/mL (≈ 231 µM); in the test with Aspergillus niger it was 100 µg/mL (≈ 231 µM); against Candida albicans, 50 µg/mL (≈ 116 µM); with Pseudomonas aeruginosa, 25 µg/mL (≈ 57.8 µM); in the test with Rhizopus, 50 µg/mL (≈ 116 µM). Further, the minimum inhibitory concentration (MIC) against Staphylococcus aureus came out at 100 µg/mL (≈ 231 µM); against Escherichia coli, 25 µg/mL (≈ 57.8 µM); in the test with Klebsiella pneumoniae it was 100 µg/mL (≈ 231 µM); in the test with Candida, 200 µg/mL (≈ 462 µM).

Take `Fc1ccc(C2NC(c3ccc(F)cc3)C3CCCC2C3=NOCc2ccccc2)cc1` (configuration not stated): the MIC against Aspergillus flavus was determined as 100 µg/mL (≈ 231 µM); in the test with Salmonella enterica, 50 µg/mL (≈ 116 µM); in the test on Aspergillus niger, 50 µg/mL (≈ 116 µM); against Candida albicans it was 25 µg/mL (≈ 57.8 µM); in the test on Pseudomonas aeruginosa it was 25 µg/mL (≈ 57.8 µM); in the test on Rhizopus it was 50 µg/mL (≈ 116 µM). Besides, the MIC amounted to 100 µg/mL (≈ 231 µM) against Staphylococcus aureus, 25 µg/mL (≈ 57.8 µM) with Escherichia coli, 50 µg/mL (≈ 116 µM) with Klebsiella pneumoniae and 100 µg/mL (≈ 231 µM) with Candida.

Consider `Clc1ccc(C2NC(c3ccc(Cl)cc3)C3CCCC2C3=NOCc2ccccc2)cc1` (configuration not stated), for which the MIC is 50 µg/mL (≈ 107 µM) against Aspergillus flavus; 25 µg/mL (≈ 53.7 µM) in the test with Salmonella enterica; 25 µg/mL (≈ 53.7 µM) against Aspergillus niger; 25 µg/mL (≈ 53.7 µM) against Candida albicans; 12.5 µg/mL (≈ 26.9 µM) in the test with Pseudomonas aeruginosa; 12.5 µg/mL (≈ 26.9 µM) in the test on Rhizopus. The MIC against Staphylococcus aureus was determined as 25 µg/mL (≈ 53.7 µM); in the test with Escherichia coli, 50 µg/mL (≈ 107 µM); with Klebsiella pneumoniae, 100 µg/mL (≈ 215 µM); with Candida, 50 µg/mL (≈ 107 µM).

Take `Cc1ccc(C2NC(c3ccc(C)cc3)C3CCCC2C3=NOCc2ccccc2)cc1` (configuration not stated): the MIC was determined as 100 µg/mL (≈ 236 µM) against Aspergillus flavus; 100 µg/mL (≈ 236 µM) against Salmonella enterica; 100 µg/mL (≈ 236 µM) against Aspergillus niger; 50 µg/mL (≈ 118 µM) against Candida albicans; 25 µg/mL (≈ 58.9 µM) against Pseudomonas aeruginosa; 25 µg/mL (≈ 58.9 µM) in the test with Rhizopus. The MIC against Staphylococcus aureus is 25 µg/mL (≈ 58.9 µM); against Escherichia coli, 100 µg/mL (≈ 236 µM); with Klebsiella pneumoniae, 200 µg/mL (≈ 471 µM); against Candida, 100 µg/mL (≈ 236 µM).

On to `COc1ccc(C2NC(c3ccc(OC)cc3)C3CCCC2C3=NOCc2ccccc2)cc1` (configuration not stated), for which the MIC with Aspergillus flavus is 100 µg/mL (≈ 219 µM); with Salmonella enterica it was 50 µg/mL (≈ 110 µM); in the test with Aspergillus niger, 100 µg/mL (≈ 219 µM); against Candida albicans it was 50 µg/mL (≈ 110 µM); against Pseudomonas aeruginosa it was 50 µg/mL (≈ 110 µM); against Rhizopus, 50 µg/mL (≈ 110 µM). Moreover, the MIC against Staphylococcus aureus was 100 µg/mL (≈ 219 µM); against Escherichia coli, 50 µg/mL (≈ 110 µM); against Klebsiella pneumoniae, 100 µg/mL (≈ 219 µM); against Candida it was 50 µg/mL (≈ 110 µM).

In the case of `CN1C(c2ccccc2)C2CCCC(C2=NOCc2ccccc2)C1c1ccccc1` (configuration not stated), the MIC in the test with Aspergillus flavus is over 200 µg/mL; in the test on Salmonella enterica, 100 µg/mL (≈ 244 µM); with Aspergillus niger, 200 µg/mL (≈ 487 µM); in the test on Candida albicans it was 50 µg/mL (≈ 122 µM); in the test with Pseudomonas aeruginosa, 100 µg/mL (≈ 244 µM); in the test with Rhizopus, 50 µg/mL (≈ 122 µM). Moreover, the MIC was 200 µg/mL (≈ 487 µM) against Staphylococcus aureus, 100 µg/mL (≈ 244 µM) against Escherichia coli, 200 µg/mL (≈ 487 µM) in the test with Klebsiella pneumoniae and 200 µg/mL (≈ 487 µM) in the test with Candida.

Regarding `C[C@@H]1[C@H](O)[C@@H](C)/C=C/C=C/C=C/C=C/C=C/C=C/C=C/[C@H](O[C@@H]2O[C@H](C)[C@@H](O)[C@H](N)[C@@H]2O)C[C@@H]2O[C@](O)(C[C@@H](O)C[C@@H](O)[C@H](O)CC[C@@H](O)C[C@@H](O)CC(=O)O[C@H]1C)C[C@H](O)[C@H]2C(=O)O` [AMPHOTERICIN B], the MIC is 50 µg/mL (≈ 54.1 µM) in the test with Aspergillus flavus; 50 µg/mL (≈ 54.1 µM) against Aspergillus niger; 25 µg/mL (≈ 27.1 µM) with Candida albicans; 25 µg/mL (≈ 27.1 µM) against Rhizopus; 25 µg/mL (≈ 27.1 µM) in the test on Candida.

Regarding `O=C(O)c1cn(C2CC2)c2cc(N3CCNCC3)c(F)cc2c1=O` [CIPROFLOXACIN], the MIC in the test on Salmonella enterica was found to be 50 µg/mL (≈ 151 µM); against Escherichia coli, 25 µg/mL (≈ 75.4 µM).

The values above are taken from ChEMBL document CHEMBL1153710, “Synthesis, stereochemistry and antimicrobial studies of novel oxime ethers of aza/diazabicycles” (2009).
